Data set [1] relates to Rattus norvegicus. Briefly: Antiinflammatory activity in Wistar CF rat assessed as inhibition of carrageenan-induced paw oedema at 100 mg/kg, po administered 1 hr prior to carrageenan-challenge after 4 hrs (reference value: 78.14 +/- 7.1 %). The format is functional.
The test system of data set [2] is Mus musculus. As to the kind of experiment: Analgesic activity in mouse assessed as latency time of paw licking as nociceptive response at 250 mg/kg, po after 1 hr by hot plate test (reference value: 14.3 +/- 0.99 sec). The format is functional.
Data set [3] concerns Rattus norvegicus. As to the kind of experiment: Ulcerogenic activity in fasted Wistar albino rat assessed as ulcer index at 100 mg/kg, po after 5 hrs. The format is toxicity, organism-based. The arrangement: dose 100 mg/kg, route oral. The note with it: in vivo.
In data set [4] the test system is Mus musculus. As to the kind of experiment: Analgesic activity in mouse assessed as latency time of jumping as nociceptive response at 250 mg/kg, po after 0.5 hrs by hot plate test (reference value: 11.16 +/- 1.66 sec). The format is functional.
The test system of data set [5] is Rattus norvegicus. As to the kind of experiment: Ulcerogenic activity in fasted Wistar albino rat assessed as severity of ulcer at 100 mg/kg, po after 5 hrs. The arrangement: dose 100 mg/kg, route oral. In kind it is toxicity, organism-based. The note with it: in vivo.
In data set [6] the test system is Rattus norvegicus. Briefly: Antiinflammatory activity in Wistar CF rat assessed as inhibition of carrageenan-induced paw oedema at 100 mg/kg, po administered 1 hr prior to carrageenan-challenge after 1 hr (reference value: 55.7 +/- […] %). The format is functional.
Data set [7] relates to Mus musculus. Briefly: Analgesic activity in mouse assessed as latency time of jumping as nociceptive response at 250 mg/kg, po after 1.5 hrs by hot plate test (reference value: 16.8 +/- 2.12 sec). The format is functional.
In data set [8] the test system is Mus musculus. As to the kind of experiment: Analgesic activity in mouse assessed as latency time of paw licking as nociceptive response at 250 mg/kg, po after 1.5 hrs by hot plate test (reference value: 16.8 +/- 2.12 sec). The format is functional.
For data set [9], the system named is Rattus norvegicus. Briefly: Antiinflammatory activity in Wistar CF rat assessed as inhibition of carrageenan-induced paw oedema at 100 mg/kg, po administered 1 hr prior to carrageenan-challenge after 3 hrs (reference value: 74.63 +/- 7.13 %). In kind it is functional.
In data set [10] the test system is Mus musculus. As to the kind of experiment: Analgesic activity in mouse assessed as latency time of jumping as nociceptive response at 250 mg/kg, po after 1 hr by hot plate test (reference value: 14.3 +/- 0.99 sec). The format is functional.
Data set [11] has as its system Rattus norvegicus. As to the kind of experiment: Antiinflammatory activity in Wistar CF rat assessed as inhibition of carrageenan-induced paw oedema at 100 mg/kg, po administered 1 hr prior to carrageenan-challenge after 2 hrs (reference value: 68.6 +/- 7.14 %). The format is functional.
Data set [12] deals with Mus musculus. Briefly: Analgesic activity in mouse assessed as latency time of paw licking as nociceptive response at 250 mg/kg, po after 0.5 hrs by hot plate test (reference value: 11.16 +/- 1.66 sec). The format is functional.

Experimental findings from ChEMBL document CHEMBL1938263, “Design, synthesis, biological evaluation, and comparative Cox1 and Cox2 docking of p-substituted benzylidenamino phenyl esters of ibuprofenic and mefenamic acids” (Bioorg Med Chem, 2012) are described below.

For `COc1ccc(/C=N/c2ccc(OC(=O)c3ccccc3Nc3cccc(C)c3C)cc2)cc1`, the inhibition in vivo at 100 mg/kg was determined as 62.1% with Rattus norvegicus [1], 35.2% in the data set on Rattus norvegicus [6], 57% with Rattus norvegicus [9] and 49.4% with Rattus norvegicus [11]. Besides, the Time was determined as 25.08 s in the data set with Mus musculus [2]; 21.68 s with Mus musculus [4]; 18.46 s with Mus musculus [7]; 18.46 s with Mus musculus [8]; 25.08 s in the data set with Mus musculus [10]; 21.68 s in the data set on Mus musculus [12]. Besides, the UI in the data set on Rattus norvegicus [3] is reported as 0. The Activity entry in the data set with Rattus norvegicus [5] is “Non-toxic”.

On to `CC(C)Cc1ccc(C(C)C(=O)Oc2ccc(/N=C/c3ccc(N(C)C)cc3)cc2)cc1` (stereo not drawn), for which the inhibition in vivo at 100 mg/kg is 107% in the data set with Rattus norvegicus [1], 71.7% in the data set with Rattus norvegicus [6], 104% in the data set with Rattus norvegicus [9] and 96.1% with Rattus norvegicus [11]. Moreover, the Time was 32.14 s in the data set with Mus musculus [2]; 22.22 s in the data set with Mus musculus [4]; 23 s in the data set with Mus musculus [7]; 23 s in the data set with Mus musculus [8]; 32.14 s in the data set on Mus musculus [10]; 22.22 s with Mus musculus [12]. Moreover, in the data set with Rattus norvegicus [3], the UI came to 0. For the same compound, the Activity entry in the data set on Rattus norvegicus [5] is “Non-toxic”.

Take `CC(C)Cc1ccc(C(C)C(=O)O)cc1` (racemic) [IBUPROFEN]: the inhibition in vivo at 100 mg/kg in the data set with Rattus norvegicus [1] is 44%; with Rattus norvegicus [6], 30%; in the data set on Rattus norvegicus [9] it was 41.8%; in the data set with Rattus norvegicus [11] it was 36.2%. Further, the Time in the data set with Mus musculus [2] turned out to be 16.1 s; in the data set with Mus musculus [4] it was 17.84 s; in the data set on Mus musculus [7] it was 19 s; with Mus musculus [8], 19 s; with Mus musculus [10] it was 16.1 s; with Mus musculus [12] it was 17.84 s. Besides, the UI in the data set on Rattus norvegicus [3] came to 4.03. Moreover, the Activity result in the data set on Rattus norvegicus [5] is on record as “Toxic”.

Consider `Cc1cccc(Nc2ccccc2C(=O)Oc2ccc(/N=C/c3ccc(Br)cc3)cc2)c1C`, for which the inhibition in vivo at 100 mg/kg came to 51.7% with Rattus norvegicus [1], 32% in the data set with Rattus norvegicus [6], 46.5% with Rattus norvegicus [9] and 38.5% with Rattus norvegicus [11]. Moreover, the Time with Mus musculus [2] turned out to be 21.22 s; in the data set with Mus musculus [4], 20.72 s; with Mus musculus [7], 19.38 s; in the data set on Mus musculus [8], 19.38 s; with Mus musculus [10], 21.22 s; with Mus musculus [12], 20.72 s. Besides, the UI in the data set on Rattus norvegicus [3] came out at 0. Besides, the Activity result in the data set on Rattus norvegicus [5] was “Non-toxic”.

For `COc1ccc(/C=N/c2ccc(OC(=O)C(C)c3ccc(CC(C)C)cc3)cc2)cc1` (stereo not drawn), the inhibition in vivo at 100 mg/kg in the data set with Rattus norvegicus [1] came to 64.7%; in the data set on Rattus norvegicus [6], 54%; in the data set with Rattus norvegicus [9], 61.2%; with Rattus norvegicus [11], 56.2%. For the same compound, the Time was found to be 35.14 s in the data set on Mus musculus [2]; 20.18 s in the data set on Mus musculus [4]; 28.1 s with Mus musculus [7]; 28.1 s in the data set with Mus musculus [8]; 35.14 s with Mus musculus [10]; 20.18 s in the data set with Mus musculus [12]. The UI with Rattus norvegicus [3] worked out at 0. For the same compound, the Activity result in the data set on Rattus norvegicus [5] is recorded as “Non-toxic”.

For the compound `CC(C)Cc1ccc(C(C)C(=O)Oc2ccc(/N=C/c3ccc(Br)cc3)cc2)cc1` (stereo not drawn), the inhibition in vivo at 100 mg/kg in the data set with Rattus norvegicus [1] was determined as 49.3%; in the data set on Rattus norvegicus [6] it was 36.5%; with Rattus norvegicus [9], 44.7%; in the data set on Rattus norvegicus [11], 40.6%. The Time in the data set with Mus musculus [2] came out at 33.44 s; in the data set on Mus musculus [4], 19.62 s; with Mus musculus [7], 26.12 s; with Mus musculus [8] it was 26.12 s; in the data set with Mus musculus [10] it was 33.44 s; in the data set with Mus musculus [12], 19.62 s. Further, the UI in the data set on Rattus norvegicus [3] came out at 0. Also, the Activity entry in the data set on Rattus norvegicus [5] was “Non-toxic”.

As for `CC(C)Cc1ccc(C(C)C(=O)Oc2ccc(/N=C/c3ccc([N+](=O)[O-])cc3)cc2)cc1` (stereo not drawn), the inhibition in vivo at 100 mg/kg is 53.8% in the data set with Rattus norvegicus [1], 29.9% in the data set on Rattus norvegicus [6], 50.3% in the data set with Rattus norvegicus [9] and 44.4% with Rattus norvegicus [11]. The Time in the data set with Mus musculus [2] was found to be 34.62 s; in the data set with Mus musculus [4], 23.52 s; in the data set on Mus musculus [7], 24.98 s; in the data set with Mus musculus [8], 24.98 s; in the data set on Mus musculus [10], 34.62 s; in the data set with Mus musculus [12] it was 23.52 s. The UI in the data set with Rattus norvegicus [3] was 0. For the same compound, the Activity result in the data set on Rattus norvegicus [5] is reported as “Non-toxic”.

Regarding `Cc1cccc(Nc2ccccc2C(=O)Oc2ccc(/N=C/c3ccc(N(C)C)cc3)cc2)c1C`, the inhibition in vivo at 100 mg/kg with Rattus norvegicus [1] amounted to 63.5%; in the data set on Rattus norvegicus [6] it was 41.6%; in the data set on Rattus norvegicus [9] it was 53.4%; with Rattus norvegicus [11] it was 45.6%. In addition, the Time was found to be 24.4 s in the data set with Mus musculus [2]; 23.16 s in the data set on Mus musculus [4]; 15.96 s in the data set with Mus musculus [7]; 15.96 s with Mus musculus [8]; 24.4 s with Mus musculus [10]; 23.16 s in the data set with Mus musculus [12]. Also, the UI in the data set with Rattus norvegicus [3] stood at 0. For the same compound, the Activity result with Rattus norvegicus [5] was “Non-toxic”.

As for `Cc1cccc(Nc2ccccc2C(=O)Oc2ccc(/N=C/c3ccc([N+](=O)[O-])cc3)cc2)c1C`, the inhibition in vivo at 100 mg/kg in the data set with Rattus norvegicus [1] stood at 52.5%; in the data set with Rattus norvegicus [6] it was 36.9%; in the data set with Rattus norvegicus [9], 43.8%; with Rattus norvegicus [11], 41.1%. For the same compound, the Time with Mus musculus [2] was 25.98 s; in the data set with Mus musculus [4], 18.04 s; in the data set with Mus musculus [7] it was 20.82 s; with Mus musculus [8] it was 20.82 s; in the data set on Mus musculus [10], 25.98 s; in the data set on Mus musculus [12], 18.04 s. Besides, the UI in the data set with Rattus norvegicus [3] was found to be 0. Further, in the data set with Rattus norvegicus [5], the Activity entry is given as “Non-toxic”.
